Results reported in patent US5986131A, “RXR selective ligands” (Hoffmann-La Roche Inc., priority 1997, dated 1999).

Tests used:
[1] = test system: Hamster Ear Sebaceous Gland; assay: Effect on size of sebaceous glands of Golden Syrian hamsters; type: in vivo; set-up: Sebaceous Gland Size: unit not given here; details: 4 weeks topical dosing
Method: Charles River Golden Syrian male hamsters were given the desired dose in acetone. The compounds were stored at 4° C. protected from light. Fresh solutions were made up weekly.
Hamsters were dosed daily for five days, rested for two days, and dosed again for five days until 20 doses were given. The volume of solution was 50 microliters per ear.
Hamsters were sacrificed by CO2 inhalation, and the ears removed for histological evaluation. One ear was removed and the ventral surface separated from the rest of the ear. A 2 mm punch was removed 5 mm from the tip of the ear and stained in 0.1 % Sudan Black B dissolved in 100% propylene glycol overnight. After destaining, the size of sebaceous glands was quantified with a Donsanto Image Analysis System.
Data are given as the average area of 80-120 sebaceous glands per dose, as percent of the control (solvent-treated) sections.

Rhino mouse utricles = assay: Rhino mouse utricle reduction activity; type: in vivo, Rhino mice; details: topical; for Utricle Size: 3 weeks; for Utricle size % Change from Control: ns = not statistically significant, others p<0.05
Method: Compounds were dissolved in 100% acetone and stored at 4° C. for the duration of the experiment under nitrogen. […] One day after the last dose, the mice were sacrificed by CO2 inhalation. […] The epidermis was then separated from the dermis.
The samples were kept in each of the above solutions for 2 hours. The skin samples were removed from the xylene and mounted on glass microscope slides. Image analysis, using the Ultimage image analysis software, was used to determine the mean diameter and area of utricles. Approximately 5 fields per sample were examined, for an average of 150 utricles per mouse measured.

human sebaceous cells = assay: Antiproliferative activity on human sebocytes in vitro; type: cell-based; details: Homo sapiens; for IC50: 240 h, first passage cells, 10 days of exposure, read-out: Inhibition of human sebaceous cell proliferation in vitro IC50
Method: Sebaceous cells were isolated from adult human sebaceous glands by a combination of enzymatic and mechanical methods (Doran et al., 1991). The cells were cultured in Iscove's medium containing 10% fetal calf serum and 4 μg/ml dexamethasone on a layer of growth-arrested 3T3 mouse fibroblasts. Cells were plated in medium without the test compound and then given test compound in fresh medium 24-48 hours after the initial plating. The cultures were given fresh medium, containing the test compound, every 48 hours. On the day of harvesting, the cultures were rinsed with 0.03% EDTA in PBS, to remove only the 3T3 fibroblasts. followed by incubation in 0.05% trypsin/0.03% EDTA. The cells were suspended, mixed vigorously to prepare a single cell suspension and counted in a hemocytometer.
Stock solutions of compounds were made up as 10^-2 M solutions in 100% DMSO and stored at -20° C. in the dark. Compounds in solution were brought to room temperature and used by diluting directly into complete medium to the appropriate concentration.
The compounds of Example 12, Example 2, and Example 4 were tested for their effects on inhibiting the proliferation of first passage human sebaceous cells in vitro after 10 days of exposure to drug.

[2] = test system: nuclear retinoic acid receptors ("RAR"); details: cited from earlier work
[3] = test system: retinoic acid X receptors ("RXR"); details: cited from earlier work
mouse B cell = assay: Inhibition of LPS-induced mouse B cell proliferation (3H-thymidine incorporation); type: cell-based
Method: Single cell suspensions of mouse spleen were set up in culture in flatbottomed 96 well Microtiter trays, 0.2 ml/well of a 2×10^5 /ml cell suspension in IMDM supplemented with 10% foetal calf serum, HEPES, antibiotics and 50 μM 2-mercaptoethanol. The specific B cell mitogen E. coli lipopolysaccharide (DIFCO) (LPS) was added at 50μg/ml. Cultures were incubated at 37° C. in a humidified atmosphere and 5% CO2.
The retinoids to be tested were first titrated in triplicate from 10 nM to 10 μM and left throughout the whole culture period. […] Cyclosporin A (Sandoz AG) was used as a reference compound (from 1 nM to 1 μM).
The cultures were then harvested on glass fiber filters and the radioactivity imcorporated into DNA measured in a β-liquid scintillation counter (Betaplate, Wallac Oy, Turku, Finland).
The results are expressed as % of the response of untreated cultures. […] Retinoids were added to the cultures at the beginning of the culture period.

HL-60 cells = assay: HL-60 differentiation (NBT reduction); type: cell-based, human; details: in combination with RARα retinoid
Method: Under the influence of retinoids, HL-60 cells (a human myeloid leukemia cell line) differentiate into granulocytes. This differentiation of HL-60 cells into granulocytes is mediated by RARα, and so provides the basis for the use of retinoids to treat leukemia.
Retinoid-induced differentiation of HL-60 cells was assayed by measuring their oxidative burst potential via the reduction of NBT (Nitroblueterstazolium) [Pick et al., J. Reticuloendothelial Soc., 30:581-593 (1981)].
HL-60 cells were maintained in RPMI 1640 medium supplemented with 10% FCS, 2mM L-glutamine, ImM sodium pyruvate, 1% non-essential amino acids, 50 U/ml penicillin and 50 μg/ml streptomycin (=RPMI/FCS).
30,000 cells/[…] of RPMI/FCS were seeded into flat-bottomed microtiter wells. 10 μl of retinoids diluted in complete medium were added at the same time to yield final concentrations betweeen 10^-11 and 10^-6 M (stock solutions of 10^-2 M in ethanol were kep at -20° C. and protected from light). After 3 days, the medium was removed with a multichannel pipette and replaced with 100 μl of NBT solution (1 mg/ml in PBS with 200 nM phorbol myristate acetate (PMA). Following an additional hour incubation at 37° C. the NBT solution was removed and 100 μl of 10% SDS in 0.01 N HCl was added. The amount of the reduced NBT was quantified photometrically at 540 nm using an automated plate reader. The mean of 3 wells was calculated. S.E.M. were between 5 and 10%.

RXRα = target: T1, RXRα (Homo sapiens, UniProt P19793); assay: RXRα activation (transactivation); type: cell-based; details: Table 1; read-out: Activation ED50, RXRα
T1 sequence (P19793 1-462): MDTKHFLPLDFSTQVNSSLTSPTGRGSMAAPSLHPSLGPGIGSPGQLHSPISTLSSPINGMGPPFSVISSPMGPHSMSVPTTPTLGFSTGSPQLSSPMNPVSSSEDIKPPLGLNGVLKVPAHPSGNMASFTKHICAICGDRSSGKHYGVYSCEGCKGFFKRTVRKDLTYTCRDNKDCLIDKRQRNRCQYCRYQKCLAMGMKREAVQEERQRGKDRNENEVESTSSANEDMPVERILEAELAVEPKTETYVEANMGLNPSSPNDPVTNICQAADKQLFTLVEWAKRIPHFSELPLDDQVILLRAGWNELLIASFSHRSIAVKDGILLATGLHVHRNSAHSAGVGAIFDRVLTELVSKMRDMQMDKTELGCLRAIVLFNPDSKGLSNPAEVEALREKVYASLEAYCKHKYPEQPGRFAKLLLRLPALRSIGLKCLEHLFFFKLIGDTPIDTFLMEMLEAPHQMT
Description: Methods essentially as described in those publications were used to determine the binding and transactivation properties of retinoids reported in the Examples herein.

## CC1=C(/C=C/C(C)=C/C=C/C(C)=C\C(=O)O)C(C)(C)CCC1 [13-cis-retinoic acid, reference compound]
[1]; 1 μg/day
  Sebaceous Gland Size: 14029 ± 2977
[1]; 1 μg/day, ns = not statistically significant
  Sebaceous gland size % Change from Control: -15%
[1]; 10 μg/day
  Sebaceous Gland Size: 12965 ± 2029
[1]; 10 μg/day, ns = not statistically significant
  Sebaceous gland size % Change from Control: -21%
[1]; 100 μg/day
  Sebaceous Gland Size: 10459 ± 1302
  Sebaceous gland size % Change from Control: -37%
Rhino mouse utricles; 0.1 μg/day
  Utricle Size: 9187 ± 794 μm^2 / utricle
  Utricle size % Change from Control: -6%
Rhino mouse utricles; 1 μg/day
  Utricle Size: 6400 ± 424 μm^2 / utricle
  Utricle size % Change from Control: -34%
Rhino mouse utricles; 10 μg/day
  Utricle Size: 3793 ± 368 μm^2 / utricle
  Utricle size % Change from Control: -61%
Rhino mouse utricles; 100 μg/day
  Utricle Size: 3132 ± 305 μm^2 / utricle
  Utricle size % Change from Control: -68%
Human sebaceous cells
  IC50: 100 nM
[2]
  binding to RAR (in words): bind to RARα
[3]
  binding to RXR (in words): do not

## CC1=C(/C=C/C(C)=C/C=C/C(C)=C/C(=O)O)C(C)(C)CCC1 [All-trans retinoic acid, all-trans retinoic acid, reference compound]
Mouse B cell; Mus musculus, B-cell, 96 h, day 4, 10 nM, read-out: inhibition of B cell response
  inhibition at 0.01 µM: ~30%
Mouse B cell; alone, FIG. 4, day 3
  IC50: 1 nM
Mouse B cell; day 4, 1 nM
  effect on B cell response: not inhibitory any longer and actually induces a minor enhancement of the response
[2]
  binding to RAR (in words): bind to RARα
[3]
  binding to RXR (in words): do not

## CC1=C(/C=C/C(C)=C(Cl)\C=C\C(C)=C\C(=O)O)C(C)(C)CCC1 [Example 12, (All-E-)-6-chloro-3,7-dimethyl-9-(2,6,6-trimethyl-1-cyclohexen-1-yl)-2,4,6,8-nonatetraenoic acid]
Rhino mouse utricles; 0.1 μg/day
  Utricle Size: 9104 ± 829 μm^2 / utricle
  Utricle size % Change from Control: -7%
Rhino mouse utricles; 1 μg/day
  Utricle Size: 9156 ± 938 μm^2 / utricle
  Utricle size % Change from Control: -6%
Rhino mouse utricles; 10 μg/day
  Utricle Size: 7634 ± 485 μm^2 / utricle
  Utricle size % Change from Control: -22%
Rhino mouse utricles; 100 μg/day
  Utricle Size: 3596 ± 300 μm^2 / utricle
  Utricle size % Change from Control: -63%
Human sebaceous cells
  IC50: 100 nM

## CC1=C(/C=C/C(C)=C\C=C\C(C)=C\C(=O)O)C(C)(C)CCC1 [9-cis-retinoic acid, reference compound]
Rhino mouse utricles; 0.1 μg/day
  Utricle Size: 8650 ± 427 μm^2 / utricle
  Utricle size % Change from Control: -11%
Rhino mouse utricles; 1 μg/day
  Utricle Size: 6926 ± 497 μm^2 / utricle
  Utricle size % Change from Control: -29%
Rhino mouse utricles; 10 μg/day
  Utricle Size: 3540 ± 354 μm^2 / utricle
  Utricle size % Change from Control: -64%
Rhino mouse utricles; 100 μg/day
  Utricle Size: 2644 ± 312 μm^2 / utricle
  Utricle size % Change from Control: -73%
Human sebaceous cells
  IC50: 100 nM
[2]
  binding to RAR (in words): also acts as a ligand for the RAR group of receptors
[3]
  binding to RXR (in words): binds to a group of receptors known as the retinoic acid X receptors

## CC1(C)CCC(C)(C)c2cc(C(=O)Nc3ccc(C(=O)O)cc3)ccc21 [Compound A, reference compound]
HL-60 cells
  potentiation of HL-60 differentiation (in words): somewhat more pronounced
RXRα
  EC50: > 10000 nM

## CC1=C(/C=C/C(C)=C(Br)\C=C\C(C)=C\C(=O)O)C(C)(C)CCC1 [Example 2, (All-E)-6-Bromo-3,7-dimethyl-9-(2,6,6-trimethyl-1-cyclohexen-1-yl)-2,4,6,8-nonatetraenoic acid]
Rhino mouse utricles; 0.1 μg/day
  Utricle Size: 9535 ± 890 μm^2 / utricle
  Utricle size % Change from Control: -2%
Rhino mouse utricles; 1 μg/day
  Utricle Size: 9616 ± 1134 μm^2 / utricle
  Utricle size % Change from Control: -1%
Rhino mouse utricles; 10 μg/day
  Utricle Size: 9049 ± 891 μm^2 / utricle
  Utricle size % Change from Control: -7%
Rhino mouse utricles; 100 μg/day
  Utricle Size: 5437 ± 615 μm^2 / utricle
  Utricle size % Change from Control: -44%
Human sebaceous cells; 1000 nM, first experiment, read-out: inhibition of sebaceous cell growth
  inhibition at 1 µM: 70%
